According to patent US8148391B2 (Cephalon, Inc., priority 2006, dated 2012):
Read-outs that look alike come from different tables or passages of the source. Blank lines part the entries; values can stand above or below the compound they belong to.

Legend:
[1] = molecular target: T1, c-Met (cytoplasmic domain) (Homo sapiens, UniProt P08581); test: c-Met Kinase Assay (same methods as for ALK, with modifications); format: biochemical
T1 construct: 10 ng/mL c-Met (cytoplasmic domain, Invitrogen Corporation #PV3143); purchased Invitrogen Corporation PV3143
T1 sequence (P08581 956-1390 limits assumed): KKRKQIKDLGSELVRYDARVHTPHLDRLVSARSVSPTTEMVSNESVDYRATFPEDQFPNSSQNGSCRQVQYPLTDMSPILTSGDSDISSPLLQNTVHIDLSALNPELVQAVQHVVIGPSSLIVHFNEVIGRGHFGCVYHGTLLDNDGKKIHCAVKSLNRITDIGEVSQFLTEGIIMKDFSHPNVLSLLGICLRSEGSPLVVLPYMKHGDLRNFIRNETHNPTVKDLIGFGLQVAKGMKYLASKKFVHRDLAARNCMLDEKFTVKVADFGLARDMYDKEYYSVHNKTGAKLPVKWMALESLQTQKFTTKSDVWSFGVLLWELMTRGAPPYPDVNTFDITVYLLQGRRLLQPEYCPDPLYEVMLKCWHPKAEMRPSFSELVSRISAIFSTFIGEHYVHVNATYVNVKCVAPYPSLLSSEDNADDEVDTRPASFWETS
Method in brief: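 IC50 values were fitted by variable-slope sigmoidal regression of percent inhibition against log compound concentration. Phosphorylation was read with Eu-N1 PT66 antibody after a 15 min, 37 °C reaction. The reaction was initiated with 10 ng/mL c-Met cytoplasmic domain on wells coated with 10 μg/mL PLC-γ in TBS.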

[2] = molecular target: T2, baculovirus-expressed ALK (Homo sapiens, UniProt Q9UM73); test: ALK Kinase Assay (ELISA-type, time-resolved fluorescence); format: biochemical
T2 construct: host or cells: baculovirus expression system
T2 sequence (Q9UM73 19-1620): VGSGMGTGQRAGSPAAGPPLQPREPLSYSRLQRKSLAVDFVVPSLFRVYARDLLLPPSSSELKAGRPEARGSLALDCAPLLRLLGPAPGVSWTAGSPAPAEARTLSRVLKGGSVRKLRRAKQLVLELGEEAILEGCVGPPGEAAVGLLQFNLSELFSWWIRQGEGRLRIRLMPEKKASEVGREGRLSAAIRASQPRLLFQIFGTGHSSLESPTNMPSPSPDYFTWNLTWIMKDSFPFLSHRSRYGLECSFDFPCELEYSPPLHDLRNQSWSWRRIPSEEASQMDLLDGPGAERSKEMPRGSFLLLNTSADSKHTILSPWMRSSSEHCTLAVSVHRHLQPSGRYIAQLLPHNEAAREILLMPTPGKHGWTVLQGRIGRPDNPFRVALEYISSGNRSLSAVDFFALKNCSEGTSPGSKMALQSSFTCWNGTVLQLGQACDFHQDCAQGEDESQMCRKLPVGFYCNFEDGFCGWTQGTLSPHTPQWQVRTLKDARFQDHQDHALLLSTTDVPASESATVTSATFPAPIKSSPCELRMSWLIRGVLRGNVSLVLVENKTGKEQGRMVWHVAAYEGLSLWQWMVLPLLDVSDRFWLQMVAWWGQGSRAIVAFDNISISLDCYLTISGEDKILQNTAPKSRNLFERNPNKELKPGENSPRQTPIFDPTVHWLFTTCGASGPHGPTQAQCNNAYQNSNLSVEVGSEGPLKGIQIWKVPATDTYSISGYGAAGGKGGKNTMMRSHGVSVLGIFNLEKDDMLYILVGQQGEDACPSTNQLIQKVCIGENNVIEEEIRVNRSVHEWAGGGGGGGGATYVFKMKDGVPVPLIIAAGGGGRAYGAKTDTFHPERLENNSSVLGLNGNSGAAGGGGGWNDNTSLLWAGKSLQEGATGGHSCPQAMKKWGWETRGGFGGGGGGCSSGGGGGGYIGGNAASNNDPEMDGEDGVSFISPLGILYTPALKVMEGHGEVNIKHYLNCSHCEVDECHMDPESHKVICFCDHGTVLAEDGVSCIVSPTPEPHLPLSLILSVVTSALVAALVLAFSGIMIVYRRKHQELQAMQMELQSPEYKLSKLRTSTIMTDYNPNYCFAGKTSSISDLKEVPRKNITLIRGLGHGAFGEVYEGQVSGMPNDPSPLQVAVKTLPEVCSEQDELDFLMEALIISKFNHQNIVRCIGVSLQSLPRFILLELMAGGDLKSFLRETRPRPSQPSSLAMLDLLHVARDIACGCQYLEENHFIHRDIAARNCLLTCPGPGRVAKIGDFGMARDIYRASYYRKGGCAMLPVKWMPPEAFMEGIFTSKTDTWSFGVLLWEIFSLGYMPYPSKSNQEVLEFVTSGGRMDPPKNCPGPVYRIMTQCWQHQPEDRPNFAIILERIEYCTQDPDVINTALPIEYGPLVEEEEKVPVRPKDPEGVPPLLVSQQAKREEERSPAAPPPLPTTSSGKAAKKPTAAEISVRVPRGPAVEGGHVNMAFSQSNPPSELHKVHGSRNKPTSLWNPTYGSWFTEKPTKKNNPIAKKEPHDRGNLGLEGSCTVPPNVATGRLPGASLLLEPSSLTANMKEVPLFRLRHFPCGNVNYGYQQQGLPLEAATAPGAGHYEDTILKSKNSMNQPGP
Method in brief: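 Wells were coated with phospholipase C-γ at 10 μg/mL in Tris-buffered saline. Adding 30 ng/ml enzyme started the reaction, which ran at 37° C for 15 minutes before Eu-N1 PT66 antibody detection. Percent inhibition versus log10 concentration gave IC50 by variable-slope fit.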

[3] = c-Met kinase inhibition, 1 μM ATP (Km level), read-out: cMet Activity
[4] = ALK kinase inhibition, 1 μM ATP (Km level), read-out: ALK Activity
[5] = 1 μM ATP (Km level), read-out: cMet Activity (c-Met Kinase Inhibition, IC50)
[6] = 1 μM ATP (Km level), read-out: ALK Activity (ALK Kinase Inhibition, IC50)
[7] = 1 μM ATP (Km level), 10 ng/mL c-Met, read-out: cMet Activity (c-Met kinase inhibition, IC50 class)
[8] = 1 μM ATP (Km level), 30 ng/ml ALK, 37° C., 15 minutes, read-out: ALK Activity (ALK kinase inhibition, IC50 class)
[9] = c-Met kinase inhibition, 1 μM ATP, read-out: cMet Activity
[10] = ALK kinase inhibition, 1 μM ATP, read-out: ALK Activity

SMILES: CNS(=O)(=O)c1ccccc1Nc1nc(Nc2ccc3c(c2)CCN(S(C)(=O)=O)CC3)ncc1Cl [Example 43, 2-[5-Chloro-2-(3-methanesulfonyl-2,3,4,5-tetrahydro-1H-benzo[d]azepin-7-ylamino)-pyrimidin-4-ylamino]-N-methyl-benzenesulfonamide]
IC50 [1, 3]: < 100 nM
IC50 [2, 4]: < 100 nM

SMILES: Cc1ccnc(-c2ccccc2Nc2nc(Nc3ccc4c(c3)C(C)(C)CCC(=O)N4)ncc2Cl)c1 [Example 1001, 7-{5-Chloro-4-[2-(4-methyl-pyridin-2-yl)-phenylamino]-pyrimidin-2-ylamino}-5,5-dimethyl-1,3,4,5-tetrahydro-benzo[b]azepin-2-one]
IC50 [1, 5]: > 10000 nM
IC50 [2, 6]: 100 to 1000 nM

SMILES: CNC(=O)c1ccc(Nc2nc(Nc3cc4c(cc3OC)CCN(C(COC)COC)CC4)ncc2Cl)c(OC)c1 [Example 1177, 4-{5-Chloro-2-[8-methoxy-3-(2-methoxy-1-methoxymethyl-ethyl)-2,3,4,5-tetrahydro-1H-benzo[d]azepin-7-ylamino]-pyrimidin-4-ylamino}-3-methoxy-N-methyl-benzamide]
IC50 [1, 7]: > 10000 nM
IC50 [2, 8]: < 100 nM

SMILES: COCCN1CCc2ccc(Nc3ncc(Cl)c(N[C@@H]4CCC[C@H]4NS(C)(=O)=O)n3)cc2CC1 (relative stereo) [Example 371, N-(trans-2-{5-Chloro-2-[3-(2-methoxy-ethyl)-2,3,4,5-tetrahydro-1H-benzo[d]azepin-7-ylamino]-pyrimidin-4-ylamino}-cyclopentyl)-methanesulfonamide]
IC50 [1, 3]: 1000 to 10000 nM
IC50 [2, 4]: 100 to 1000 nM

SMILES: CCN1CCc2ccc(Nc3ncc(Cl)c(N[C@H]4CCC[C@H]4C(N)=O)n3)cc2CC1 (relative stereo) [Example 176, Cis-2-[5-Chloro-2-(3-ethyl-2,3,4,5-tetrahydro-1H-benzo[d]-azepin-7-ylamino)-pyrimidin-4-ylamino]-cyclopentanecarboxylic acid amide]
IC50 [1, 3]: 1000 to 10000 nM
IC50 [2, 4]: 100 to 1000 nM

SMILES: CNC(=O)c1ccccc1Nc1nc(Nc2cccc3c2CN(C(C)=O)CCN3)ncc1Cl [Example 236, 2-[2-(4-Acetyl-2,3,4,5-tetrahydro-1H-benzo[e][1,4]diazepin-6-ylamino)-5-chloro-pyrimidin-4-ylamino]-N-methyl-benzamide]
IC50 [1, 3]: 1000 to 10000 nM
IC50 [2, 4]: 100 to 1000 nM

SMILES: CNC(=O)c1ccccc1Nc1nc(Nc2ccc3c(c2)C2CCC3CNC2)ncc1Cl (centres unmarked) [Example 277, 2-[2-(10-Aza-tricyclo[6.3.2.0*2,7*]trideca-2,4,6-trien-4-ylamino)-5-chloro-pyrimidin-4-ylamino]-N-methyl-benzamide]
IC50 [1, 3]: < 100 nM
IC50 [2, 4]: < 100 nM

SMILES: CCN1CCc2ccc(Nc3ncc(Cl)c(N[C@@H]4CCCC[C@H]4O)n3)cc2CC1 (relative stereo) [Example 319, trans-2-[5-Chloro-2-(3-ethyl-2,3,4,5-tetrahydro-1H-benzo[d]azepin-7-ylamino)-pyrimidin-4-ylamino]-cyclohexanol]
IC50 [1, 3]: > 10000 nM
IC50 [2, 4]: 100 to 1000 nM

SMILES: CC1(C)CCC(=O)Nc2ccc(Nc3ncc(Cl)c(Nc4ccccc4-c4nc(C(F)(F)F)c[nH]4)n3)cc21 [Example 1010, 7-{5-Chloro-4-[2-(4-trifluoromethyl-1H-imidazol-2-yl)-phenylamino]-pyrimidin-2-ylamino}-5,5-dimethyl-1,3,4,5-tetrahydro-benzo[b]azepin-2-one]
IC50 [1, 5]: 1000 to 10000 nM
IC50 [2, 6]: 100 to 1000 nM

SMILES: CCN1CCc2ccc(Nc3ncc(Cl)c(NC4CCCCNC4=O)n3)cc2CC1 (centres unmarked) [Example 166, 3-[5-Chloro-2-(3-ethyl-2,3,4,5-tetrahydro-1H-benzo[d]azepin-7-ylamino)-pyrimidin-4-ylamino]-azepan-2-one]
IC50 [1, 3]: 1000 to 10000 nM
IC50 [2, 4]: < 100 nM

SMILES: COCCNC1CCCc2c(ccc(Nc3ncc(Cl)c(Nc4ccccc4S(=O)(=O)C(C)C)n3)c2OC)C1 (centres unmarked) [Example 959, 5-Chloro-N(2)-[1-methoxy-6-(2-methoxy-ethylamino)-6,7,8,9-tetrahydro-5H-benzocyclohepten-2-yl]-N(4)-[2-(propane-2-sulfonyl)-phenyl]-pyrimidine-2,4-diamine]
IC50 [1, 5]: > 10000 nM
IC50 [2, 6]: < 100 nM

SMILES: COCCN1CCc2cc(Nc3ncc(Cl)c(NC4C5C=CC(C5)C4C(=O)NC(C)C)n3)c(OC)cc2CC1 (stereo not drawn) [Example 605, (2-exo-3-exo)-3-{5-Chloro-2-[8-methoxy-3-(2-methoxy-ethyl)-2,3,4,5-tetrahydro-1H-benzo[d]azepin-7-ylamino]-pyrimidin-4-ylamino}-bicyclo[2.2.1]hept-5-ene-2-carboxylic acid isopropylamide]
IC50 [1, 5]: > 10000 nM
IC50 [2, 6]: < 100 nM

SMILES: COc1c(Nc2ncc(Cl)c(Nc3ccccc3S(=O)(=O)N(C)C)n2)ccc2c1CCC(NCC(F)(F)F)CC2 (centres unmarked) [Example 684, 2-{5-Chloro-2-[1-methoxy-7-(2,2,2-trifluoro-ethylamino)-6,7,8,9-tetrahydro-5H-benzocyclohepten-2-ylamino]-pyrimidin-4-ylamino}-N,N-dimethyl-benzenesulfonamide]
IC50 [1, 5]: > 10000 nM
IC50 [2, 6]: < 100 nM

The remaining lines, values ahead:

IC50 [1, 9]: > 10000 nM
IC50 [2, 10]: 100 to 1000 nM
SMILES: COc1cc(N2CCOCC2)ccc1Nc1nc(Nc2ccc3c(c2)N(C(C)C)CCCC3(C)C)ncc1Cl [Example 1629, 5-Chloro-N*2*-(1-isopropyl-5,5-dimethyl-2,3,4,5-tetrahydro-1H-benzo[b]azepin-8-yl)-N*4*-(2-methoxy-4-morpholin-4-yl-phenyl)-pyrimidine-2,4-diamine]

IC50 [1, 7]: 1000 to 10000 nM
IC50 [2, 8]: < 100 nM
SMILES: CC(C)S(=O)(=O)c1cccc(F)c1Nc1nc(Nc2ccc3c(c2)C(C)(C)CCC(=O)N3)ncc1Cl [Example 1254, 7-{5-Chloro-4-[2-fluoro-6-(propane-2-sulfonyl)-phenylamino]-pyrimidin-2-ylamino}-5,5-dimethyl-1,3,4,5-tetrahydro-1-benzazepin-2-one]

IC50 [1, 9]: 100 to 1000 nM
IC50 [2, 10]: 1000 to 10000 nM
SMILES: C#CCNC(=O)c1cc(F)cc(F)c1Nc1nc(Nc2ccc3c(c2)N(C(=O)N2CCCC2)CCCC3(C)C)ncc1Cl [Example 1622, 2-{5-Chloro-2-[5,5-dimethyl-1-(pyrrolidine-1-carbonyl)-2,3,4,5-tetrahydro-1H-benzo[b]azepin-8-ylamino]-pyrimidin-4-ylamino}-3,5-difluoro-N-prop-2-ynyl-benzamide]

IC50 [1, 7]: 100 to 1000 nM
IC50 [2, 8]: 100 to 1000 nM
SMILES: COCCN1CCc2ccc(Nc3ncc(Cl)c(Nc4c(F)cccc4OC4CCOC4)n3)cc2CC1 (centres unmarked) [Example 1274, 5-Chloro-N(4)-[2-fluoro-6-(tetrahydro-furan-3-yloxy)-phenyl]-N(2)-[3-(2-methoxy-ethyl)-2,3,4,5-tetrahydro-1H-3-benzazepin-7-yl]-pyrimidine-2,4-diamine]

IC50 [1, 9]: < 100 nM
IC50 [2, 10]: 1000 to 10000 nM
SMILES: CCN1C(=O)CN(C(C)=O)Cc2ccc(Nc3ncc(Cl)c(Nc4ccccc4C(=O)NC)n3)cc21 [Example 1855, 2-[2-(4-Acetyl-1-ethyl-2-oxo-2,3,4,5-tetrahydro-1H-benzo[e][1,4]diazepin-8-ylamino)-5-chloro-pyrimidin-4-ylamino]-N-methyl-benzamide]

IC50 [1, 7]: < 100 nM
IC50 [2, 8]: < 100 nM
SMILES: CC(=O)N1CCC(=O)NCc2cc(Nc3ncc(Cl)c(Nc4ccccc4OCC#N)n3)ccc21 [Example 1231, {2-[2-(1-Acetyl-4-oxo-1,2,3,4,5,6-hexahydro-benzo[b][1,5]diazocin-8-ylamino)-5-chloro-pyrimidin-4-ylamino]-phenoxy}-acetonitrile]
